According to PMC6273431, “The Structure–Antimicrobial Activity Relationships of a Promising Class of the Compounds Containing the N-Arylpiperazine Scaffold” (Molecules, 2016):
Read-outs that look alike come from different tables or passages of the source.

What was measured:
M. kansasii DSM 44162 = assay: antimycobacterial MIC, broth dilution micromethod; assay type: cell-based; settings: Mycobacterium kansasii, DSM44162, 168 h, 7 days at 37 °C
[1] = tested on: Mycobacterium avium subsp. paratuberculosis CIT03; assay: antimycobacterial MIC, MB broth, alamarBlue; assay type: cell-based; settings: 264 h, read-out: MIC MAP
Experimental: The Mycobacterium avium subsp. paratuberculosis CIT03 strain was grown in the Middlebrook (MB) broth, supplemented with the Oleic-Albumin-Dextrose-Catalase Supplement (OADC, Becton Dickinson, Oxford, UK) and the mycobactin J (2 μg/mL). The commercially available siderophore mycobactin J reduced the incubation period of M. avium subsp. paratuberculosis in a complex medium when compared to the medium containing the mycobactin P as a growth factor.
The identification of the isolate was performed using biochemical and molecular protocols. At a log phase growth, a culture sample (10 mL) was centrifuged at 15,000 rpm/20 min using a bench top centrifuge (Model CR 4-12, Jouan Inc., London, UK). Following removal of the supernatant, the pellet was washed in fresh Middlebrook 7H9GC broth and re-suspended in fresh supplemented MB broth (10 mL). The turbidity was adjusted to match the McFarland standard No. 1 containing approximately 3.0 × 10^8 Colony Forming Units (CFU) with the MB broth. Further 1:20 dilution of the culture was performed in the MB broth. The susceptibility of given mycobacterial species was investigated in a 96-well plate format. In those experiments, sterile deionised water (300 μL) was added to all outer-perimeter wells of the plates to minimize an evaporation of the medium in the test wells during the incubation process. Each evaluated compound (100 μL) was incubated with the mycobacterial species (100 μL). The dilutions of a particular compound were prepared in triplicate. For all inspected derivatives, final concentrations ranged from 1000 μg/mL to 60 μg/mL. All compounds were prepared in dimethyl sulfoxide (DMSO; Sigma-Aldrich, Irvine, UK) and subsequent dilutions were made in the supplemented MB broth. The plates were sealed with a parafilm and incubated at 37 °C for 11 days. Following the incubation, a 10% addition of a water‑soluble dye, the alamarBlue reagent (AbD Serotec, Kidlington, UK), was mixed into each well. Absorbance readings at 570 nm and 600 nm were taken, initially for background subtraction and after 24 h re-incubation. The subtraction is necessary for strongly coloured compounds, where the colour may interfere with the interpretation of any colour change. For non-interfering compounds, a blue colour in a well was interpreted as an absence of a growth and a pink colour was scored as a growth.
The minimum inhibitory concentration (MIC) was defined as the lowest concentration of the compound at which no visible bacterial growth was observed. In other words, the MIC was the lowest concentration that prevented a visual colour change from blue to pink. The MIC value has been routinely and widely used in bacterial assays and it has been a standard detection limit according to the Clinical and Laboratory Standards Institute. The clinically used antimycobacterial drugs INH and RIF were applied as the standards.

M. smegmatis ATCC 700084 = assay: antimycobacterial MIC, broth dilution micromethod; assay type: cell-based; settings: Mycolicibacterium smegmatis, ATCC700084, 72 h, 3 days at 37 °C
[2] = tested on: Staphylococcus aureus ATCC 29213; assay: antibacterial MIC, microtitration broth method; assay type: cell-based; settings: 37 °C
Experimental: (§1) Prior to the testing, each strain was transferred into a nutrient agar (Oxoid Limited, Basingstoke, UK), which was enriched with 5% defibrinated bovine blood.
(§2) The MICs were determined by the microtitration broth method in the cation-adjusted Mueller-Hinton broth (Becton Dickinson, Oxford, UK) according to an international interdisciplinary Clinical Laboratory Standard Institute guidelines.
(§3) The checkerboard was inoculated by the bacterial inocula, which were prepared in a phosphate buffered saline solution with the pH = 7.2–7.3 to simulate physiological pH. The final concentration of each inoculum in the final volume of 100 μL in the wells was approximately 7.5 × 10^6 CFU/mL. Drug-free controls, sterility controls and the controls consisted of the broth with DMSO were included. The determination of the results was performed visually after 24 h of static incubation in the darkness at 37 °C in an aerobic atmosphere.
(§4) To ensure reproducibility, each antibacterial MIC assay was performed triplicate on separate occasions.

[3] = tested on: Enterococcus faecalis ATCC 29212; assay: antibacterial MIC, microtitration broth method; assay type: cell-based; settings: 37 °C
Experimental: as §1, §2, §3, §4

[4] = tested on: Escherichia coli ATCC 25922; assay: antibacterial MIC, microtitration broth method; assay type: cell-based; settings: 37 °C
Experimental: as §1, §2, §3, §4

[5] = tested on: methicillin-resistant Staphylococcus aureus 63718; assay: antibacterial MIC, microtitration broth method; assay type: cell-based; settings: MRSA, 37 °C
Experimental: as §1, §2, §3, §4

M. marinum CAMP 5644 = assay: antimycobacterial MIC, broth dilution micromethod; assay type: cell-based; settings: Mycobacterium marinum, CAMP5644, 504 h, 21 days at 28 °C
[6] = set-up: method as in PMID 16209439, PMID 16209439, doi:10.2478/s11696-006-0007-y; settings: octan-1-ol/phosphate buffer (pH = 7.4); cited from earlier work
[7] = tested on: Candida albicans CCM 8261; assay: candidacidal MIC, microdilution method; assay type: cell-based; settings: Candida albicans, CCM8261, 48 h, 37 °C
Experimental: (§5) In order to provide a look into the potential usefulness of the derivatives 5a–l as the candidates for a development of anti-yeast (candidacidal) agents, they were in vitro tested against Candida albicans CCM 8261 (CA 8261), C. krusei CCM 8271 (CK 8271) and C. parapsilosis CCM 8260 (CP 8260). The yeasts were obtained from the Czech Collection of Microorganisms (Masaryk University, Faculty of Science, Brno, Czech Republic). They were grown and kept on Sabouraud agar (Oxoid Limited, Basingstoke, UK).
(§6) For the screening, the microdilution method according to the Antimicrobial Susceptibility Testing Protocols was applied. The inoculum was prepared from the cultures grown on Sabouraud agar. With the sterile solution of NaCl, the inoculum was prepared to the 0.5 McFarland units using the Densi-La-Meter densitometer (LIAP, Riga, Latvia) and diluted a thousand‑fold with the Roswell Park Memorial Institute (RPMI) 1640 medium (Sigma-Aldrich, Darmstadt, Germany). Prepared suspension was used for an inoculation of microtitre plates. Final concentration in wells ranged from 5.0 × 10^2 CFU/mL to 2.5 × 10^3 CFU/mL. […] For the determination of the MICs, the stock solutions of all the tested compounds were diluted in the microtitre checkerboard to the final concentration varying from 128 μg/mL to 0.125 μg/mL. Drug-free control, sterility control and the control consisted of a medium and DMSO alone were included. Inoculated microtitre plates were incubated for 48 h in the darkness at 37 °C in an aerobic atmosphere. The results were estimated against static light.
(§7) The MIC was defined as the lowest concentration of the tested compound at which no visible growth was observed. To ensure reproducibility of the results, each candidacidal MIC assay was performed triplicate on separate occasions. It was important to note that all the MICs from the in vitro antimicrobial screening were expressed in μg/mL units and were available in Tables S3 and S4 (Supplementary Materials).

Candida krusei CCM 8271 = assay: candidacidal MIC, microdilution method; assay type: cell-based; settings: Pichia kudriavzevii, CCM8271, 48 h, 37 °C
Experimental: as §5, §6, §7

[8] = tested on: Candida parapsilosis CCM 8260; assay: candidacidal MIC, microdilution method; assay type: cell-based; settings: Lodderomyces parapsilosis, CCM8260, 48 h, 37 °C
Experimental: as §5, §6, §7

[9] = set-up: method as in PMID 16209439, PMID 16209439; settings: potentiometric titration; cited from earlier work

Compound | MIC (M. kansasii DSM 44162) [µM] | MIC (M. kansasii DSM 44162; Table S3) [µg/mL] | MIC ([1]; 37 °C, 11 days) [µM] | MIC [1] [µg/mL] | MIC (M. smegmatis ATCC 700084) [µM] | MIC (M. smegmatis ATCC 700084; Table S3) [µg/mL] | MIC ([2]; ATCC29213, 24 h) [µM] | MIC ([2]; ATCC29213, Table S4, 24 h) [µg/mL] | MIC ([3]; ATCC29212, 24 h) [µM] | MIC ([3]; ATCC29212, Table S4, 24 h) [µg/mL] | MIC ([4]; ATCC25922, 24 h) [µM] | MIC ([4]; ATCC25922, Table S4, 24 h) [µg/mL] | MIC ([5]; 24 h) [µM] | MIC ([5]; Table S4, 24 h) [µg/mL] | MIC (M. marinum CAMP 5644) [µM] | MIC (M. marinum CAMP 5644; Table S3) [µg/mL] | log Pexp [6] | MIC [7] [µM] | MIC ([7]; Table S4) [µg/mL] | MIC (Candida krusei CCM 8271) [µM] | further results
COc1ccccc1NC(=O)OCC(O)CN1CCN(c2ccc(F)cc2)CC1 (stereo not drawn) [Compound 5g] | 145 | 64 | 2270 | 1000 | 582 | 256 | > 582 | > 256 | > 582 | > 256 | > 582 | > 256 | > 582 | > 256 | 145 | 64 | 3.61 | > 291 | > 128 | > 291 | MIC (Candida krusei CCM 8271; Table S4): > 128 µg/mL; MIC [8]: > 291 µM; MIC ([8]; Table S4): > 128 µg/mL; pKa [9]: 6.73
CCOc1ccccc1NC(=O)OCC(O)CN1CCN(c2ccc(F)cc2)CC1 (stereo not drawn) [Compound 5h] | 282 | 128 | 1100 | 500 | 564 | 256 | > 564 | > 256 | > 564 | > 256 | > 564 | > 256 | > 564 | > 256 | 282 | 128 | 3.90 | > 282 | > 128 | > 282 | MIC (Candida krusei CCM 8271; Table S4): > 128 µg/mL; MIC [8]: > 282 µM; MIC ([8]; Table S4): > 128 µg/mL; pKa [9]: 6.58
COc1cccc(NC(=O)OCC(O)CN2CCN(c3ccc(F)cc3)CC2)c1 (stereo not drawn) [Compound 5i] | 145 | 64 | 1140 | 500 | 582 | 256 | > 582 | > 256 | > 582 | > 256 | > 582 | > 256 | > 582 | > 256 | 291 | 128 | 3.25 | > 291 | > 128 | > 291 | MIC (Candida krusei CCM 8271; Table S4): > 128 µg/mL; MIC [8]: > 291 µM; MIC ([8]; Table S4): > 128 µg/mL; pKa [9]: 6.55
CCOc1cccc(NC(=O)OCC(O)CN2CCN(c3ccc(F)cc3)CC2)c1.Cl (stereo not drawn) [Compound 5j, 1-[3-(3-ethoxyphenylcarbamoyl)oxy-2-hydroxypropyl]-4-(4-fluorophenyl)piperazin-1-ium chloride] | 17.6 | 8 | 551 | 250 | 282 | 128 | > 564 | > 256 | > 564 | > 256 | > 564 | > 256 | > 564 | > 256 | 141 | 64 | 3.59 | > 282 | > 128 | > 282 | MIC (Candida krusei CCM 8271; Table S4): > 128 µg/mL; MIC [8]: > 282 µM; MIC ([8]; Table S4): > 128 µg/mL; pKa [9]: 6.31
